Where a name gives a salt, the structure may show the parent alone.

Data set [1] can be described thus: Weight increase and appearance after exposure to relative humidity (hygroscopicity test). The format is physicochemical. The note with it: for 24 hours; for Weight increase %: exposure to a relative humidity of 60 ±5% at 25%; for Appearance: exposure to a relative humidity of 60 ±5%.
The nature of data set [2]: Hygroscopicity of the isolated solid as observed on preparation. The format is physicochemical. The following applies: isolated solid after preparation. The protocol: The mixture was then filtered under vacuum and the solid thus obtained was dried in a thermostatic oven at 30° C. overnight.
The mixture was then filtered under vacuum and the solid thus obtained dried in a thermostatic oven at 30° C. overnight.
8 g (0.05 moles) of L-carnitine inner salt, 5.8 g (0.05 moles) of fumaric acid and 6.6 g of L-ornithine were dissolved in 7.5 mL of water at 60° C. and the resulting thick, clear mass was slowly poured into a solution of acetone (800 mL) under vigorous mechanical stirring.

As to `CN(CC(=O)O)C(=N)N` [Anhydrous creatine], in data set [1], the Weight increase % amounted to 3% and the Appearance entry was “flowable”. On the same counts, the results for `CC(C)CC(=O)O[C@H](CC(=O)[O-])C[N+](C)(C)C` [Isovaleryl L-carnitine inner salt] are 20% and “deliquescent”. Turning to `C[N+](C)(C)C[C@H](O)CC(=O)[O-].O=C(O)/C=C/C(=O)O` [L-carnitine fumarate], the “Hygroscopicity of the solid obtained” value in data set [2] is “highly hygroscopic”. Consider `C[N+](C)(C)C[C@H](O)CC(=O)[O-]` [L-carnitine inner salt], for which, in data set [1], the Weight increase % is 19% and the Appearance entry is given as “deliquescent”. On to “Isovaleryl L-Carnitine and Creatine Fumarate [Ex. 2 (BS/232)]”, for which the “Hygroscopicity of the solid obtained” value in data set [2] is on record as “non-hygroscopic”. For the same compound, in data set [1], the Weight increase % came to 0.19% and the Appearance entry was “no variation”. For “L-Carnitine and Creatine Fumarate [Ex. 1 (BS/231)]”, in that order: “non-hygroscopic”, 0.18% and “no variation”. Turning to L-carnitine and lysine fumarate, in data set [2], the “Hygroscopicity of the solid obtained” value is listed as “non-hygroscopic”.

“isovaleryl L-carnitine and lysine fumarate”: in data set [2], the “Hygroscopicity of the solid obtained” value is “non-hygroscopic”.

The values above are taken from patent publication US6730693B2, “Double salts of fumaric acid with a carnitine and an amino acid and food supplements, dietary supplements and drugs containing same” (Sigma-Tau Industrie Farmaceutiche Riunite S.p.A., priority 2000, dated 2004).
